This is an account of results in ChEMBL document CHEMBL5724914, “Linking interpersonal differences in gut microbiota composition and drug biotransformation activity” (2024).

Data set [1] can be described thus: The drug is tested on Z-024 corresponding to pig gut metagenome with ENA study accession number: PRJEB37062 and ENA sample accession number: ERS12561823 for biotransformation under anaerobic condition. The drug concentrations were measured over 9 timepoints collected between 0 and 24 hours of incubation by liquid-chromatography-coupled mass spectrometry (LC–MS). As to conditions: 2 µM.

Data set [2] in a line: The drug is tested on Z-017 corresponding to mouse gut metagenome with ENA study accession number: PRJEB37062 and ENA sample accession number: ERS12561816 for biotransformation under anaerobic condition. The drug concentrations were measured over 9 timepoints collected between 0 and 24 hours of incubation by liquid-chromatography-coupled mass spectrometry (LC–MS). As to conditions: 2 µM.

Data set [3] can be described thus: The drug is tested on Z-010 corresponding to metagenome with ENA study accession number: PRJEB37062 and ENA sample accession number: ERS12561810 for biotransformation under anaerobic condition. The drug concentrations were measured over 9 timepoints collected between 0 and 24 hours of incubation by liquid-chromatography-coupled mass spectrometry (LC–MS). As to conditions: 2 µM.

Data set [4] in a line: The drug is tested on Z-009 corresponding to pig gut metagenome with ENA study accession number: PRJEB37062 and ENA sample accession number: ERS12561809 for biotransformation under anaerobic condition. The drug concentrations were measured over 9 timepoints collected between 0 and 24 hours of incubation by liquid-chromatography-coupled mass spectrometry (LC–MS). As to conditions: 2 µM.

Data set [5] in a line: The drug is tested on Z-001 corresponding to mouse gut metagenome with ENA study accession number: PRJEB37062 and ENA sample accession number: ERS12561801 for biotransformation under anaerobic condition. The drug concentrations were measured over 9 timepoints collected between 0 and 24 hours of incubation by liquid-chromatography-coupled mass spectrometry (LC–MS). As to conditions: 2 µM.

Data set [6] in a line: The drug is tested on WLS-350 corresponding to human gut metagenome with ENA study accession number: PRJEB37062 and ENA sample accession number: ERS12561789 for biotransformation under anaerobic condition. The drug concentrations were measured over 9 timepoints collected between 0 and 24 hours of incubation by liquid-chromatography-coupled mass spectrometry (LC–MS). As to conditions: 2 µM.

The nature of data set [7]: The drug is tested on WLS-220 corresponding to human gut metagenome with ENA study accession number: PRJEB37062 and ENA sample accession number: ERS12561769 for biotransformation under anaerobic condition. The drug concentrations were measured over 9 timepoints collected between 0 and 24 hours of incubation by liquid-chromatography-coupled mass spectrometry (LC–MS). As to conditions: 2 µM.

The nature of data set [8]: The drug is tested on WLS-086 corresponding to human gut metagenome with ENA study accession number: PRJEB37062 and ENA sample accession number: ERS12561752 for biotransformation under anaerobic condition. The drug concentrations were measured over 9 timepoints collected between 0 and 24 hours of incubation by liquid-chromatography-coupled mass spectrometry (LC–MS). As to conditions: 2 µM.

A short description of data set [9]: The drug is tested on WLS-073 corresponding to human gut metagenome with ENA study accession number: PRJEB37062 and ENA sample accession number: ERS12561749 for biotransformation under anaerobic condition. The drug concentrations were measured over 9 timepoints collected between 0 and 24 hours of incubation by liquid-chromatography-coupled mass spectrometry (LC–MS). As to conditions: 2 µM.

A short description of data set [10]: The drug is tested on WLS-052 corresponding to human gut metagenome with ENA study accession number: PRJEB37062 and ENA sample accession number: ERS12561747 for biotransformation under anaerobic condition. The drug concentrations were measured over 9 timepoints collected between 0 and 24 hours of incubation by liquid-chromatography-coupled mass spectrometry (LC–MS). As to conditions: 2 µM.

Data set [11] is described as follows: The drug is tested on WLS-038 corresponding to human gut metagenome with ENA study accession number: PRJEB37062 and ENA sample accession number: ERS12561745 for biotransformation under anaerobic condition. The drug concentrations were measured over 9 timepoints collected between 0 and 24 hours of incubation by liquid-chromatography-coupled mass spectrometry (LC–MS). As to conditions: 2 µM.

The conditions of data set [12]: human gut metagenome, 24 h, 2 µM.
The conditions of data set [13]: human gut metagenome, 24 h, 2 µM. The source holds these as a separate data set.
For data set [14] the following is noted: human gut metagenome, 24 h, 2 µM. This is another data set of the same source.
For data set [15] the following is noted: human gut metagenome, 24 h, 2 µM. The source holds these as a separate data set.
For data set [16] the following is noted: human gut metagenome, 24 h, 2 µM. The source holds these as a separate data set.
The conditions of data set [17]: human gut metagenome, 24 h, 2 µM. This is another data set of the same source.
The conditions of data set [18]: human gut metagenome, 24 h, 2 µM. The source holds these as a separate data set.
For data set [19] the following is noted: human gut metagenome, 24 h, 2 µM. This is another data set of the same source.
For data set [20] the following is noted: human gut metagenome, 24 h, 2 µM. This is another data set of the same source.
Note: call rule not given here.

In the case of `CCCc1nc2c(C)cc(-c3nc4ccccc4n3C)cc2n1Cc1ccc(-c2ccccc2C(=O)O)cc1`, the “Bacterial Biotransformation” value in [1], in [2], in data set [3], in [4], in data set [5] and in data set [6] was “Compound metabolized” each time. Besides, the “Bacterial Biotransformation” value in [7], in [8], in data set [9], in [10], in data set [11] and in data set [12] was “Compound metabolized” each time. The “Bacterial Biotransformation” value in data set [13], in data set [14], in data set [15], in data set [16], in data set [17] and in data set [18] was “Compound metabolized” each time. Besides, the “Bacterial Biotransformation” value in data set [19] and in data set [20] was “Compound metabolized” each time.

In the case of `Cc1cc2c(cc1S(N)(=O)=O)S(=O)(=O)CCC2`, the “Bacterial Biotransformation” value in [1], in data set [2], in [3], in data set [4], in [5] and in [6] was “Compound NOT metabolized” each time. The “Bacterial Biotransformation” value in [7], in data set [8], in [9], in data set [10], in data set [11] and in data set [12] was “Compound NOT metabolized” in each case. For the same compound, the “Bacterial Biotransformation” value in data set [13], in [14], in data set [15], in [16], in data set [17] and in data set [18] was “Compound NOT metabolized” in each case. Also, the “Bacterial Biotransformation” value in data set [19] and in data set [20] was “Compound NOT metabolized” each time.

As to `CN1CCc2c(c3ccccc3n2Cc2ccccc2)C1.CN1CCc2c(c3ccccc3n2Cc2ccccc2)C1.O=S(=O)(O)c1cccc2c(S(=O)(=O)O)cccc12`, the “Bacterial Biotransformation” value is on record as “Compound metabolized” in [1]; “Compound NOT metabolized” in data set [2]; “Compound NOT metabolized” in [3]; “Compound NOT metabolized” in data set [4]; “Compound NOT metabolized” in data set [5]; “Compound NOT metabolized” in [6]. The “Bacterial Biotransformation” value in [7] was “Compound metabolized”; in [8], “Compound NOT metabolized”; in data set [9] it was “Compound NOT metabolized”; in [10], “Compound NOT metabolized”; in [11], “Compound NOT metabolized”; in data set [12], “Compound NOT metabolized”. For the same compound, the “Bacterial Biotransformation” value in [13] is on record as “Compound metabolized”; in data set [14] it was “Compound NOT metabolized”; in data set [15] it was “Compound NOT metabolized”; in data set [16], “Compound NOT metabolized”; in data set [17], “Compound NOT metabolized”; in [18], “Compound metabolized”. Also, the “Bacterial Biotransformation” value in [19] and in [20] was “Compound NOT metabolized” in each case.

Regarding `CN1CC(=O)N2[C@H](c3ccc4c(c3)OCO4)c3[nH]c4ccccc4c3C[C@@H]2C1=O`, the “Bacterial Biotransformation” value was “Compound metabolized” in data set [1]; “Compound NOT metabolized” in [2]; “Compound metabolized” in [3]; “Compound metabolized” in [4]; “Compound NOT metabolized” in data set [5]; “Compound metabolized” in [6]. Besides, the “Bacterial Biotransformation” value in data set [7] is given as “Compound metabolized”; in [8], “Compound metabolized”; in data set [9], “Compound NOT metabolized”; in [10] it was “Compound metabolized”; in [11] it was “Compound metabolized”; in data set [12], “Compound metabolized”. Moreover, the “Bacterial Biotransformation” value in data set [13] is “Compound NOT metabolized”; in data set [14], “Compound NOT metabolized”; in data set [15], “Compound NOT metabolized”; in data set [16], “Compound NOT metabolized”; in data set [17], “Compound metabolized”; in data set [18], “Compound metabolized”. Moreover, the “Bacterial Biotransformation” value in [19] and in data set [20] was “Compound metabolized” in each case.

As for `COc1cc2nc(N(C)CCCNC(=O)C3CCCO3)nc(N)c2cc1OC` (stereo not given) [ALFUZOSIN], the “Bacterial Biotransformation” value is reported as “Compound NOT metabolized” in [1]; “Compound NOT metabolized” in [2]; “Compound metabolized” in [3]; “Compound metabolized” in data set [4]; “Compound metabolized” in [5]; “Compound metabolized” in data set [6]. Besides, the “Bacterial Biotransformation” value is on record as “Compound metabolized” in data set [7]; “Compound metabolized” in data set [8]; “Compound metabolized” in [9]; “Compound metabolized” in data set [10]; “Compound NOT metabolized” in data set [11]; “Compound metabolized” in [12]. The “Bacterial Biotransformation” value was “Compound metabolized” in data set [13]; “Compound NOT metabolized” in data set [14]; “Compound NOT metabolized” in data set [15]; “Compound metabolized” in data set [16]; “Compound metabolized” in data set [17]; “Compound metabolized” in [18]. The “Bacterial Biotransformation” value in [19] and in [20] was “Compound metabolized” each time.

Turning to `NC12CC3CC(CC(C3)C1)C2` [AMANTADINE], the “Bacterial Biotransformation” value in data set [1], in data set [2], in data set [3], in [4], in data set [5] and in data set [6] was “Compound NOT metabolized” throughout. Also, the “Bacterial Biotransformation” value in [7], in data set [8], in [9], in data set [10], in data set [11] and in data set [12] was “Compound NOT metabolized” throughout. Moreover, the “Bacterial Biotransformation” value in data set [13], in [14], in data set [15], in [16], in data set [17] and in data set [18] was “Compound NOT metabolized” throughout. In addition, the “Bacterial Biotransformation” value in [19] and in [20] was “Compound NOT metabolized” each time.
